Results reported in patent publication US6342502B1, “Thieno[2,3-d]pyrimidine diones and their use in the treatment of reversible obstructive airways diseases” (AstraZeneca AB, priority 1997, dated 2002).

SMILES | melting point [°C]
CC(C)Cn1c(=O)n(C)c(=O)c2c(SCCC(C)O)c(Cc3cccc4ccccc34)sc21 (racemic) [Example 85, (±)-5-[(3-Hydroxybutyl)thio]-3-methyl-1-(2-methylpropyl)-6-(1-naphthalenylmethyl)thieno2,3-d]pyrimidine-2,4(1H,3H)-dione] | 162 to 163
C=C(C)Cn1c(=O)n(C)c(=O)c2cc(Cc3ccc(OC)cc3)sc21 [Example 2, 6-(4-Methoxyphenylmethyl)-3-methyl-1-(2-methyl-2-propenyl)thieno[2,3-d]pyrimidine-2,4(1H,3H)-dione] | 111
CC(C)Cn1c(=O)[nH]c(=O)c2cc(Cc3cccc4ccccc34)sc21 [Example 3, 1-(2-Methylpropyl)-6-(1-naphthalenylmethyl)thieno[2,3-d]pyrimidine-2,4(1H,3H)-dione] | 189 to 190
CC(C)Cn1c(=O)n(C)c(=O)c2c(Sc3ccccn3)c(Cc3cccc4ccccc34)sc21 [Example 5, 3-Methyl-1-(2-methylpropyl)-6-(1-naphthalenylmethyl)-5-[(2-pyridinyl)thio]thieno[2,3-d]pyrimidine-2,4(1H,3H)-dione] | 148 to 149
COC(=O)CCCSc1c(Cc2cccc3ccccc23)sc2c1c(=O)n(C)c(=O)n2CC(C)C [Example 7, Methyl 4-[(1,2,3,4-tetrahydro-3-methyl-1-(2-methylpropyl)-6-(1-naphthalenylmethyl)-2,4-dioxothieno[2,3-d]pyrimidin-5-y)thio]butanoate] | 111 to 112
CC(C)Cn1c(=O)n(C)c(=O)c2c(SCCCC(=O)O)c(Cc3cccc4ccccc34)sc21 [Example 8, 4-[(1,2,3,4-Tetrahydro-3-methyl-1-(2-methylpropyl)-6-(1-naphthalenylmethyl)-2,4-dioxothieno[2,3-d]pyrimidin-5-yl)thio]butanoic acid] | 172 to 173
COC(=O)CCCS(=O)(=O)c1c(Cc2cccc3ccccc23)sc2c1c(=O)n(C)c(=O)n2CC(C)C [Example 10, Methyl 4-[(1,2,3,4-tetrahydro-3-methyl-1-(2-methylpropyl)-6-(1-naphthalenylmethyl)-2,4-dioxothieno[2,3-d]pyrimidin-5-yl)sulfonyl]butanoate] | 122 to 124
CC(C)Cn1c(=O)n(C)c(=O)c2c(S(=O)(=O)CCCC(=O)O)c(Cc3cccc4ccccc34)sc21 [Example 11, 4-[(1,2,3,4-Tetrahydro-3-methyl-1-(2-methylpropyl)-6-(1-naphthalenylmethyl)-2,4-dioxothieno[2,3-d]pyrimidin-5-yl)sulfonyl]butanoic acid] | 174 to 181
CC(C)Cn1c(=O)n(C)c(=O)c2c(C(=O)NCCO)c(Cc3cccc4ccccc34)sc21 [Example 16, 1,2,3,4-Tetrahydro-N-(2-hydroxyethyl)-3-methyl-1-(2-methylpropyl)-6-(1-naphthalenylmethyl)-2,4-dioxothieno[2,3-d]pyrimidine-5-carboxamide] | 193 to 194
CC(C)Cn1c(=O)n(C)c(=O)c2c(C(=O)NCC(=O)O)c(Cc3cccc4ccccc34)sc21 [Example 21, 2-{[1,2,3,4-Tetrahydro-3-methyl-1-(2-methylpropyl)-6-(1-naphthalenylmethyl)-2,4-dioxothieno[2,3-d]pyrimidin-5-yl]carboxamido}acetic acid] | 218 to 219
CC(C)Cn1c(=O)n(C)c(=O)c2c(Sc3cccc(O)c3)c(Cc3cccc4ccccc34)sc21 [Example 27, 5-[(3-Hydroxyphenyl)thio]-3-methyl-1-(2-methylpropyl)-6-(1-naphthalenylmethyl)thieno[2,3-d]pyrimidine-2,4-(1H,3H)-dione] | 200 to 201
CC(C)Cn1c(=O)n(C)c(=O)c2c(S(=O)(=O)c3cccc(O)c3)c(Cc3cccc4ccccc34)sc21 [Example 29] | 209 to 210
CC(C)Cn1c(=O)n(C)c(=O)c2c(Sc3cccc(N)c3)c(Cc3cccc4ccccc34)sc21 [Example 31, 5-[(3-Aminophenyl)thio]-3-methyl-1-(2-methylpropyl)-6-(1-naphthalenylmethyl)-thieno[2,3-d]pyrimidine-2,4-(1H, 3H)-dione] | 149 to 150
CC(C)Cn1c(=O)n(C)c(=O)c2c(Sc3cccc(N(S(C)(=O)=O)S(C)(=O)=O)c3)c(Cc3cccc4ccccc34)sc21 [Example 32, 5-{[3-{(Bis-methanesulfonyl)amino}phenyl]thio}-3-methyl-1-(2-methylpropyl)-6-(1-naphthalenylmethy)theino[2,3d]pyrimidine-2,4(1H, 3H)-dione] | 216 to 217
COC(=O)Nc1cccc(Sc2c(Cc3cccc4ccccc34)sc3c2c(=O)n(C)c(=O)n3CC(C)C)c1 [Example 33] | 167 to 168
CC(=O)Nc1cccc(Sc2c(Cc3cccc4ccccc34)sc3c2c(=O)n(C)c(=O)n3CC(C)C)c1 [Example 34, 5-[(3-Acetamidophenyl)thio]-3-methyl-1-(2-methylpropyl)-6-(1-naphthalenylmethyl)thieno[2,3-d]pyrimidine-2,4-(1H, 3H)-dione] | 173 to 174
CC(C)Cn1c(=O)n(C)c(=O)c2c(Sc3ccc(N)cc3)c(Cc3cccc4ccccc34)sc21 [Example 36, 5-[(4-Aminophenyl)thio]-3-methyl-1-(2-methylpropyl)-6-(1-naphthalenylmethyl)thieno[2,3-d]pyrimidine-2,4-(1H, 3H)-dione] | 177 to 178
CC(C)Cn1c(=O)n(C)c(=O)c2c(Sc3ccc([N+](=O)[O-])cn3)c(Cc3cccc4ccccc34)sc21 [Example 37, 3-Methyl-1-(2-methylpropyl)-6-(1-naphthalenylmethyl)-5-[(5-nitropyridin-2-yl)thio]thieno[2,3-d]pyrimidine-2,4-(1H, 3H)-dione] | 200 to 201
CC(C)Cn1c(=O)n(C)c(=O)c2c(Sc3cccc[n+]3[O-])c(Cc3cccc4ccccc34)sc21 [Example 38, 2-{[1,2,3,4-Tetrahydro-3-methyl-1-(2-methylpropyl)-6-(1-naphthalenylmethyl)-2,4-dioxothieno[2,3-d]pyrimidin-5-yl]thio}pyridine N-oxide] | 228 to 229
CC(C)Cn1c(=O)n(C)c(=O)c2c(SCCCN=[N+]=[N-])c(Cc3cccc4ccccc34)sc21 [Example 39, 5-[(3-Azidopropyl)thio]-3-methyl-1-(2-methylpropyl)-6-(1-naphthalenylmethyl)thieno[2,3-d]pyrimidine-2,4(1H,3H)-dione] | 94 to 96
CC(=O)NCCCSc1c(Cc2cccc3ccccc23)sc2c1c(=O)n(C)c(=O)n2CC(C)C [Example 41] | 114 to 117
CC(C)Cn1c(=O)n(C)c(=O)c2c(NC(=O)NCCO)c(Cc3cccc4ccccc34)sc21 [Example 48] | 227 to 228
CC(C)Cn1c(=O)n(C)c(=O)c2c(NC(=O)OCCO)c(Cc3cccc4ccccc34)sc21 [Example 49, 2-Hydroxyethyl [1,2,3,4-tetrahydro-3-methyl-1-(2-methylpropyl)-6-(1-naphthalenylmethyl)-2,4-dioxothieno[2,3-d]pyrimidin-5-yl]carbamate] | 201 to 202
CC(C)Cn1c(=O)n(C)c(=O)c2c(NC(=O)N(C)CCO)c(Cc3cccc4ccccc34)sc21 [Example 50] | 151 to 152

More lines, now with the values ahead:

melting point [°C] | SMILES
126 to 128 | CC(C)Cn1c(=O)n(C)c(=O)c2c(SCC(C)O)c(Cc3cccc4ccccc34)sc21 (racemic) [Example 15, (±) 5-[(2-Hydroxypropyl)thio]-3-methyl-1-(2-methylpropyl)-6-(1-naphthalenylmethyl)thieno[2,3-d]pyrimidine-2,4(1H,3H)-dione]
100 to 105 | CC(C)Cn1c(=O)n(C)c(=O)c2c(SCCCO)c(C(O)c3cccc4ccccc34)sc21 (racemic) [Example 83, (±) 6-(1-Hydroxy-1-[1-naphthalenyl]methyl)-5-([3-hydroxypropyl]thio)-3-methyl-1-(2-methylpropyl)thieno[2,3-d]pyrimidine-2,4(1H,3H)-dione]
137 to 138 | CC(C)Cn1c(=O)n(C)c(=O)c2cc(Cc3cccc4ccccc34)sc21 [Example 4]
72 to 73 | CC(C)Cn1c(=O)n(C)c(=O)c2cc(Cc3ccccc3)sc21 [Example 12, 6-Benzyl-3-methyl-1-(2-methylpropyl)thieno[2,3-d]pyrimidine-2,4(1H,3H)-dione]
91 to 93 | CC(C)n1c(=O)n(C)c(=O)c2cc(Cc3ccccc3)sc21 [Example 13, 3-Methyl-1-(1-methylethyl)-6-(phenylmethyl)thieno[2,3-d]pyrimidine-2,4(1H,3H)-dione]
140 to 142 | CC(C)Cn1c(=O)n(C)c(=O)c2cc(C(O)c3ccccc3)sc21 (centres unmarked) [Example 14, 6-[(1-Hydroxy-1-phenyl)methyl]-3-methyl-1-(2-methylpropyl)thieno[2,3-d]pyrimidine-2,4(1H,3H)-dione]
54 | CC(C)Cn1c(=O)n(C)c(=O)c2cc(C(O)c3cccc(F)c3)sc21 (centres unmarked) [Example 51, 6-[(1-Hydroxy-1-(3-fluorophenyl))methyl]-3-methyl-1l-(2-methylpropyl)thieno[2,3-d]pyrimiidine-2,4-(1H, 3H)-dione]
76 to 78 | CC(C)Cn1c(=O)n(C)c(=O)c2cc(Cc3cccc(F)c3)sc21 [Example 52, 6-[(3-Fluorophenyl)methyl]-3-methyl-1-(2-methylpropyl)thieno[2,3-d]pyrimidine-2,4-(1H, 3H)-dione]
152 | CC(C)Cn1c(=O)n(C)c(=O)c2cc(C3OC(=N)c4ccccc43)sc21 (centres unmarked) [Example 81, 6-(3-Imino-1,3-dihydro-benzo[c]furan-1-yl)-3-methyl-1-(2-methylpropyl)thieno[2,3-d]pyrimidine-2,4(1H, 3H)-dione]
183 | CC(C)Cn1c(=O)n(C)c(=O)c2cc(Cc3ccccc3C(N)=O)sc21 [Example 82, 2-[(1,2,3,4-tetrahydro-3-methyl-1-(2-methylpropyl)-2,4-dioxothieno[2,3-d]pyrimidin-6-yl)methyl]benzamido]
99 to 100 | CC(C)Cn1c(=O)n(C)c(=O)c2c(SCCCO)c(Cc3cccc(F)c3)sc21 [Example 86]
